Data reported in the SangsterLogP compilation.

Test: method code SF-AS, from DOI: 10.1021/jm00305a054, PMID: 5812219

Compound | logP
CC(C)C(=O)NC(=O)C1CCC1 | 0.26
CCCCC(=O)NC(=O)C1CCC1 | 0.75
CC(C)(C)C(=O)NC(=O)C1CCC1 | 0.53
CCCC(=O)NC(=O)C1CCC1 | 0.41
CCCCCCCC(=O)NC(=O)C1CCC1 | 0.85
O=CNC(=O)C1CCC1 | -0.7
CC(=O)NC(=O)C1CCC1 | -0.4
CC(C)CC(=O)NC(=O)C1CCC1 | 0.48
CCCCCCCCCCCC(=O)NC(=O)C1CCC1 | 1.28
CCCCCC(=O)NC(=O)C1CCC1 | 0.89
